Laboratory results published in US9650395B2, “Antibacterial compounds and methods for use” (PTC Therapeutics, Inc., priority 2011, dated 2017).
Values after ≈ are worked out from the molar mass of the structure shown. Read-outs that look alike come from different tables or passages of the source.

Assays:
[1] = tested on: super sensitive Gram-negative Escherichia coli (E. coli) BAS849; experiment: Antibacterial activity, microbroth dilution MIC, E. coli BAS849; assay type: cell-based; details: Escherichia coli, read-out: MIC, BAS849
[2] = tested on: Haemophilus influenzae (H. influenzae) 49247; experiment: Antibacterial activity, MIC, H. influenzae 49247; assay type: cell-based; details: Haemophilus influenzae; H. influenzae 49247; read-out: MIC 49247
From the text: (§1) The antibacterial activity from a microbroth dilution method may be presented as the minimum inhibitory concentration (MIC in […]). The MIC value is the lowest concentration of a drug which prevents macroscopically visible bacterial growth under test conditions.
Antibacterial activity of test compounds against the Gram-negative bacteria Haemophilus influenzae (H. influenzae) 49247, Moraxella catarrhalis (M. catarrhalis) 25238 and Neisseria meningitidis (N. meningitidis) 13090 is shown in Table 6.

[3] = tested on: control Gram-negative E. coli 25922 strain; experiment: Antibacterial activity, microbroth dilution MIC, E. coli 25922; assay type: cell-based, Escherichia coli; details: Escherichia coli; E. coli 25922, microbroth dilution; read-out: MIC, 25922
[4] = tested on: E. coli ELZ4000 (MDR clinical isolate); experiment: Antibacterial activity, MIC, MDR E. coli ELZ4000; assay type: cell-based, Escherichia coli; details: Escherichia coli; E. coli ELZ4000, MDR clinical isolate; read-out: MIC ELZ4000
[5] = tested on: quinolone resistant E. coli LZ3111; experiment: Antibacterial activity, MIC, quinolone resistant E. coli LZ3111; assay type: cell-based, Escherichia coli; details: Escherichia coli, read-out: MIC, LZ3111
From the text: as §1
Mutations in these regions are known to confer a high level resistance to the quinolone class of antibiotics.

[6] = tested on: Neisseria meningitidis (N. meningitidis) 13090; experiment: Antibacterial activity, MIC, N. meningitidis 13090; assay type: cell-based; details: Neisseria meningitidis; N. meningitidis 13090; read-out: MIC 13090
[7] = tested on: Gram-positive Staphylococcus aureus (S. aureus) 29213; experiment: Antibacterial activity, microbroth dilution MIC, S. aureus 29213; assay type: cell-based; details: Staphylococcus aureus; S. aureus 29213, microbroth dilution; read-out: MIC, 29213
[8] = tested on: E. coli ELZ4251 (MDR clinical isolate); experiment: Antibacterial activity, MIC, MDR E. coli ELZ4251; assay type: cell-based, Escherichia coli; details: Escherichia coli, E. coli ELZ4251, MDR clinical isolate; read-out: MIC ELZ4251
[9] = tested on: Moraxella catarrhalis (M. catarrhalis) 25238; experiment: Antibacterial activity, MIC, M. catarrhalis 25238; assay type: cell-based; details: Moraxella catarrhalis, M. catarrhalis 25238; read-out: MIC 25238
[10] = E. coli BAS849, microbroth dilution

SMILES | MIC [1] [µg/mL] | MIC [2] [µg/mL] | MIC [3] [µg/mL] | MIC [4] [µg/mL] | MIC [5] [µg/mL] | MIC [6] [µg/mL] | MIC [7] [µg/mL] | MIC [8] [µg/mL] | MIC [9] [µg/mL] | MIC [1, 10] [µg/mL]
CCc1c(-c2ccc(N3CCNCC3)cc2)[nH]c(=O)c(C(=O)O)c1O.O=C(O)C(F)(F)F [Cpd 105, 5-ethyl-4-hydroxy-2-oxo-6-[4-(piperazin-1-yl)phenyl]-1,2-dihydropyridine-3-carboxylic acid trifluoroacetate] | 1 to 3.5 | 3.5 to 12.5 | 3.5 to 12.5 | 12.5 to 150 | 12.5 to 150 | 1 to 3.5 | 12.5 to 150 | 12.5 to 150 | 3.5 to 12.5 | –
CCc1c(-c2ccc(N(C)C)s2)[nH]c(=O)c(C(=O)O)c1O [Cpd 306, 6-[5-(dimethylamino)thiophen-2-yl]-5-ethyl-4-hydroxy-2-oxo-1,2-dihydropyridine-3-carboxylic acid] | – | < 1 | 3.5 to 12.5 (≈ 11.4 to 40.5 µM) | 12.5 to 150 (≈ 40.5 to 486 µM) | 12.5 to 150 (≈ 40.5 to 486 µM) | < 1 | 3.5 to 12.5 (≈ 11.4 to 40.5 µM) | 12.5 to 150 (≈ 40.5 to 486 µM) | < 1 | < 1
CCc1cc(C(=O)O)c(=O)[nH]c1-c1ccc(N2CC[C@H](N)C2)cc1.Cl [Cpd 132, 6-{4-[(3S)-3-aminopyrrolidin-1-yl]phenyl}-5-ethyl-2-oxo-1,2-dihydropyridine-3-carboxylic acid hydrochloride] | – | < 1 | 1 to 3.5 | 12.5 to 150 | 12.5 to 150 | < 1 | 3.5 to 12.5 | 12.5 to 150 | < 1 | < 1
CCc1c(-c2ccc(N3CCCCC3)cc2)[nH]c(=O)c(C(=O)O)c1O [Cpd 109, 5-ethyl-4-hydroxy-2-oxo-6-[4-(piperidin-1-yl)phenyl]-1,2-dihydropyridine-3-carboxylic acid] | – | < 1 | 12.5 to 150 (≈ 36.5 to 438 µM) | – | – | < 1 | 3.5 to 12.5 (≈ 10.2 to 36.5 µM) | – | < 1 | < 1
CN(C)c1ccc(-c2[nH]c(=O)c(C(=O)O)c(O)c2C2CCCCC2)cc1 [Cpd 7, 5-cyclohexyl-6-[4-(dimethylamino)phenyl]-4-hydroxy-2-oxo-1,2-dihydropyridine-3-carboxylic acid] | – | < 1 | 12.5 to 150 (≈ 35.1 to 421 µM) | – | – | 1 to 3.5 (≈ 2.81 to 9.82 µM) | 1 to 3.5 (≈ 2.81 to 9.82 µM) | – | < 1 | 3.5 to 12.5 (≈ 9.82 to 35.1 µM)
CCc1cc(C(=O)O)c(=O)[nH]c1-c1ccc(-n2ccnc2)cc1 [Cpd 106, 5-ethyl-6-[4-(1H-imidazol-1-yl)phenyl]-2-oxo-1,2-dihydropyridine-3-carboxylic acid] | – | < 1 | 12.5 to 150 (≈ 40.4 to 485 µM) | – | – | 3.5 to 12.5 (≈ 11.3 to 40.4 µM) | 12.5 to 150 (≈ 40.4 to 485 µM) | – | 12.5 to 150 (≈ 40.4 to 485 µM) | 12.5 to 150 (≈ 40.4 to 485 µM)
CCc1cc(C(=O)O)c(=O)[nH]c1-c1ccc(N2CCN(C(=O)OC(C)(C)C)CC2)c(F)c1 [Cpd 91, 6-{4-[4-(tert-butoxycarbonyl)piperazin-1-yl]-3-fluorophenyl}-5-ethyl-2-oxo-1,2-dihydropyridine-3-carboxylic acid] | – | 1 to 3.5 (≈ 2.24 to 7.86 µM) | 12.5 to 150 (≈ 28.1 to 337 µM) | – | – | 3.5 to 12.5 (≈ 7.86 to 28.1 µM) | 12.5 to 150 (≈ 28.1 to 337 µM) | – | < 1 | 12.5 to 150 (≈ 28.1 to 337 µM)
CCc1cc(C(=O)O)c(=O)[nH]c1-c1ccc(N2CCN(C(=O)OC(C)(C)C)CC2)cc1 [Cpd 102, 6-{4-[4-(tert-butoxycarbonyl)piperazin-1-yl]phenyl}-5-ethyl-2-oxo-1,2-dihydropyridine-3-carboxylic acid] | – | 1 to 3.5 (≈ 2.34 to 8.19 µM) | 12.5 to 150 (≈ 29.2 to 351 µM) | – | – | 1 to 3.5 (≈ 2.34 to 8.19 µM) | 12.5 to 150 (≈ 29.2 to 351 µM) | – | < 1 | 1 to 3.5 (≈ 2.34 to 8.19 µM)
CCc1cc(C(=O)O)c(=O)[nH]c1-c1ccc(N2CC3CC2CN3)cc1.O=C(O)C(F)(F)F (stereo not drawn) [Cpd 138, 6-[4-(2,5-diazabicyclo[2.2.1]hept-2-yl)phenyl]-5-ethyl-2-oxo-1,2-dihydropyridine-3-carboxylic acid trifluoroacetate] | 12.5 to 150 | 12.5 to 150 | 12.5 to 150 | – | – | 12.5 to 150 | 12.5 to 150 | – | < 1 | –
CCc1cc(C(=O)O)c(=O)[nH]c1-c1ccc(N2[C@H](COC)CC[C@H]2COC)cc1 [Cpd 148, 6-{4-[(2S,5S)-2,5-bis(methoxymethyl)pyrrolidin-1-yl]phenyl}-5-ethyl-2-oxo-1,2-dihydropyridine-3-carboxylic acid] | – | 12.5 to 150 (≈ 31.2 to 375 µM) | 12.5 to 150 (≈ 31.2 to 375 µM) | – | – | 3.5 to 12.5 (≈ 8.74 to 31.2 µM) | 12.5 to 150 (≈ 31.2 to 375 µM) | – | 12.5 to 150 (≈ 31.2 to 375 µM) | 3.5 to 12.5 (≈ 8.74 to 31.2 µM)
CN(C)c1ccc(-c2[nH]c(=O)c(C(=O)O)cc2C2CCCCC2)cc1 [Cpd 6, 5-cyclohexyl-6-[4-(dimethylamino)phenyl]-2-oxo-1,2-dihydropyridine-3-carboxylic acid] | – | < 1 | 12.5 to 150 (≈ 36.7 to 441 µM) | – | – | < 1 | 12.5 to 150 (≈ 36.7 to 441 µM) | – | 3.5 to 12.5 (≈ 10.3 to 36.7 µM) | 3.5 to 12.5 (≈ 10.3 to 36.7 µM)
